Assay [1] deals with cells treated with FAC and BSO. Put plainly: Cell swelling and cell lysis (LDH release) in FAC and BSO-induced ferroptosis. Type of assay: cell-based. Particulars: for cell lysis / cell rupture (release of lactate dehydrogenase, LDH): 48 hours of treatment with FAC and BSO (400 μM), osmoprotectant 30 mM. The method, then: The effect on cell lysis is shown by reduced release of lactate dehydrogenase (LDH), a measure of necrosis.
To investigate if the ferroptotic rupture of cells might be an event that is regulated by a pore, experiments were performed with osmo-protectants in the cell culture medium. Osmo-protectants are large osmolytes that when added to sufficient concentrations outside of cells (30 mM), buffer potential ion imbalances caused by pore formation that would otherwise lead to membrane rupture. The loss of ion and small molecule balances across the plasma membrane due to the opening of a pore would lead to hypo-osmotic stress due to the large molecules and organelles that cannot cross the intact membrane.
(§1) The use of osmo-protectants (FIG. 1B) of increasing sizes can indicate the presence of pores in the membrane that would be required for cell rupture.
A general note: Release of lactate dehydrogenase indicates damage to the cell membrane.

Assay [2] in a line: Computational analysis of cell death spreading (time-lapse microscopy, random trials). The format is cell-based. The note with it: experimentally-induced apoptosis; cell line not stated. The method, then:
Nuclei are circled and color-coded to represent the relative timing of cell death, determined by time-lapse microscopy. The relative positioning of cell deaths occurring in successive frames of a time-lapse movie are calculated by measuring the distance between newly occurring deaths and their nearest neighbor of any previous deaths, for example death 2 to death 1, or distance a. The mean distance of all deaths in a movie is calculated as distances (a+b+c+ . . . +n)/n.
It was observed that ferroptosis involves the spreading of cell death between adjacent cells in cell culture in wave-like or synchronous patterns. […] To study cell death spreading, a computational analysis was designed that allows for quantification of the random or non-random nature of observed patterns of cell death in a population. As shown in FIGS. 2A-2D, this analysis utilizes time-lapse microscopic imaging of cell death, for cells cultured in the presence of Sytox green or Sytox orange dyes (or propidium iodide), which enter the nucleus of necrotic cells and emit green or red fluorescence (FIG. 2A). […] In addition to the actual data set calculated for each field of view, randomized trials are then also performed 1000 times for each microscopic field, to generate a random set of possible mean distances that account for the particular arrangements of cells in each field (FIG. 2B). […]

The next assay relates to HT1080 cells. Put plainly: Cell rupture in response to other inducers of ferroptosis with osmoprotectants. Type of assay: cell-based. Particulars: necrotic cell death induced by hydrogen peroxide, FIG. 1F.
From the text: as §1

Assay [3] has as its system cells treated with FAC and BSO. Nature of the assay: Spreading of ferroptosis, cell rounding and calcium signal with inhibitors or osmoprotectants. Type of assay: cell-based. The method, then: FIG. 3A depicts images that show cell colony prior to (left) and 12 hours after (right) treatment with liproxstatin-1. Note cell death involving wave-like spreading that was induced by FAC and BSO, and started prior to liproxstatin-1 addition, was inhibited, as cells that were alive (bottom right half of colony) stayed alive for 12 hours.
Right images show computational quantifications of the spreading of cell rounding (top), which remains significant in the presence of PEG1450 (***P=0.004) (see histogram, bottom). Cells are pseudocolored in top image to represent the relative timing of cell rounding.
Relative times are shown as minutes (min).
It was observed that ferroptosis involves a pore-forming activity and, also, a spreading activity. […] As cell rounding or swelling may be associated with calcium influx into cells, cells expressing the genetically-encoded calcium sensor GCaMP, which emits GFP fluorescence upon calcium exposure, were treated with FAC and BSO to induce ferroptosis in the presence of PEG3350.

Assay [4] has as its system LNCAP prostate cancer cells. Nature of the assay: Western blot of PSMA and AR expression after enzalutamide exposure in vitro. Type of assay: cell-based. The note with it: 10 μM continuously for 15 days. An excerpt:
At the conclusion of exposure, cells were collected and the expression levels of PSMA and AR were examined via Western blot.

The subject of assay [5] is LNCAP-AR prostate cancer cells. Described as above. Type of assay: cell-based. The note with it: 10 μM over 15 days.
A further assay concerns LNCAP xenografts. Nature of the assay: PSMA expression in xenografts after daily enzalutamide. Type of assay: in vivo, mice. The note with it: 10 mg/kg/day, oral gavage.
For assay [6], the system named is PC-3 prostate cancer cells. Put plainly: Western blot of PSMA and AR expression after enzalutamide exposure in vitro. Type of assay: cell-based. The note with it: 10 μM for 15 days. Background: A western blot detects proteins with antibodies after separation by electrophoresis.

The record followed here is US20250009696A1, “METHODS OF CANCER TREATMENT VIA REGULATED FERROPTOSIS” (Memorial Sloan Kettering Cancer Center, priority 2017, published 2025).

SMILES strings stand for the structures.

On to `OC[C@H]1O[C@@](CO)(O[C@H]2O[C@H](CO)[C@@H](O)[C@H](O)[C@H]2O)[C@@H](O)[C@@H]1O` [sucrose], for which the “cell lysis / cell rupture (release of lactate dehydrogenase, LDH)” value in assay [1] is “did not”.

Turning to `COc1nccnc1NS(=O)(=O)c1ccc(NC(=O)/C=C/c2ccc([N+](=O)[O-])s2)cc1` [necrosulfonamide], in assay [1] (treatment with inhibitor of MLKL), the ferroptotic cell rupture result was “did not affect ferroptotic cell rupture”.

As for `C[C@@H]1C[C@@H]([C@H](O)CC2CC(=O)NC(=O)C2)C(=O)[C@@H](C)C1` [cyclohexamide], the “observed mean distance between cell deaths versus random trials” value in assay [2] was “falls within the random trials”.

Take `OO` [hydrogen peroxide]: the “regulation of necrotic cell death by PEG1450 or PEG3350” value in the assay on HT1080 cells is “did not involve similar regulation”.

For the molecule `Clc1cccc(CN=C2Nc3ccccc3NC23CCNCC3)c1` [liproxstatin-1], the “spreading of cell rounding / morphological changes” value in assay [3] (FAC and BSO (400 μM) in the presence of the named agent) was “blocked”. The “wave-like spreading of ferroptosis” value in assay [3] (FAC and BSO, agent added after initiation of ferroptosis) was “disrupted wave-like spreading”.

For the molecule `CNC(=O)c1ccc(N2C(=S)N(c3ccc(C#N)c(C(F)(F)F)c3)C(=O)C2(C)C)cc1F` [enzalutamide], in assay [4], the “AR expression (Western blot)” value is “transient increase in AR expression is also observed from Day 7 to Day 10” and the “PSMA expression (Western blot)” value is given as “increase in PSMA expression occurs on, or around, Day 7 of exposure”. Moreover, in assay [5], the “AR expression (Western blot)” value is “clear increase in AR expression is observed from Day 3 onward” and the “PSMA expression (Western blot)” value is “time-dependent increase in PSMA expression”. In the assay on LNCAP xenografts, the “PSMA expression in LNCAP xenografts” value is on record as “increase in PSMA expression at Day 5” and the “PSMA expression in tumor sections (immunofluorescence staining)” value is reported as “increase in PSMA expression at Day 5”. In addition, in assay [6], the “AR expression (Western blot)” value is given as “negative for AR across all tested time points” and the “PSMA expression (Western blot)” value was “lack of PSMA expression at all time points”.

`OC[C@H]1O[C@H](OC[C@H]2O[C@H](O[C@]3(CO)O[C@H](CO)[C@@H](O)[C@@H]3O)[C@H](O)[C@@H](O)[C@@H]2O)[C@H](O)[C@@H](O)[C@H]1O` [raffinose]: the “cell lysis / cell rupture (release of lactate dehydrogenase, LDH)” value in assay [1] is “did not”.
